Data taken from paper PMC9600550, “The pH Robustness of Bacterial Sensing” (mBio, 2022).
Read-outs that look alike come from different tables or passages of the source.

Tests used:
(UniProt A0A4D6XHN3) = assay: ITC titration of E6B08_RS28125 with L-ornithine at different pH; assay type: binding, P. putida 1290; conditions: 25°C, pH 9.0, read-out: KD at pH optimum
TtgV = molecular target: T1, TtgV (Pseudomonas putida, UniProt Q93PU6); assay: ITC titration of TtgV with benzonitrile at different pH; assay type: binding, P. putida DOT-T1E; conditions: 25°C
T1 construct: made in house
T1 sequence (Q93PU6 whole entry): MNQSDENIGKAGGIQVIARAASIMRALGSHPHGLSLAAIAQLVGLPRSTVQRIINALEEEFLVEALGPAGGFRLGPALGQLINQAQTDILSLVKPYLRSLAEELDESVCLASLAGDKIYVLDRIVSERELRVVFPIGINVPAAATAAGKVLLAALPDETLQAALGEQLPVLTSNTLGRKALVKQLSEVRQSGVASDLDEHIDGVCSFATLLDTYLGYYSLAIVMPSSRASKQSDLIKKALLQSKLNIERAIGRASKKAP

McpV-LBD = McpV-LBD (Sinorhizobium meliloti, UniProt Q7APD1); assay: ITC titration of McpV-LBD with propionate at different pH; assay type: binding, Sinorhizobium meliloti RU11/001
Chain of McpV-LBD (Q7APD1 entry or part of it): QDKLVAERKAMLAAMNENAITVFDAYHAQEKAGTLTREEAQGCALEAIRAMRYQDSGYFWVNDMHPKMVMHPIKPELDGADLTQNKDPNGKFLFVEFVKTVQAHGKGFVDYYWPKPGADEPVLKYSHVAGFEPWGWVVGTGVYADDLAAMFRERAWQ

AdmX-LBD = AdmX-LBD (Serratia plymuthica, UniProt P0DV33); assay: ITC titration of AdmX-LBD with indole-3-pyruvic acid at different pH; assay type: binding, Serratia plymuthica A153
Chain of AdmX-LBD (P0DV33 91-304): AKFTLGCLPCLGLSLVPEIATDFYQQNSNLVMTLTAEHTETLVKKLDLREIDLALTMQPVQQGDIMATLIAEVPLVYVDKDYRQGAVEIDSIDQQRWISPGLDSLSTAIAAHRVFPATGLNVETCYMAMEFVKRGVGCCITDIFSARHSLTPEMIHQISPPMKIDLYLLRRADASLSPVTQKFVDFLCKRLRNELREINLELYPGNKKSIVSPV

McpS-Tar = molecular target: T2, McpS-Tar (UniProt P07017+Q88E10); assay: FRET (CheY-YFP/CheZ-CFP) chemotaxis pathway response, McpS-Tar hybrid as sole chemoreceptor; assay type: cell-based; conditions: E. coli VS181 with McpS-Tar as sole chemoreceptor, read-out: EC50 (half-maximal effective concentration), FRET titration
T2 construct: 295]-Tar[200-553] receptor; expressed in transfected cells; host or cells: receptorless E. coli VS181, plasmid pSB10 (pKG116 derivative)
T2 sequence (Q88E10+P07017 fused): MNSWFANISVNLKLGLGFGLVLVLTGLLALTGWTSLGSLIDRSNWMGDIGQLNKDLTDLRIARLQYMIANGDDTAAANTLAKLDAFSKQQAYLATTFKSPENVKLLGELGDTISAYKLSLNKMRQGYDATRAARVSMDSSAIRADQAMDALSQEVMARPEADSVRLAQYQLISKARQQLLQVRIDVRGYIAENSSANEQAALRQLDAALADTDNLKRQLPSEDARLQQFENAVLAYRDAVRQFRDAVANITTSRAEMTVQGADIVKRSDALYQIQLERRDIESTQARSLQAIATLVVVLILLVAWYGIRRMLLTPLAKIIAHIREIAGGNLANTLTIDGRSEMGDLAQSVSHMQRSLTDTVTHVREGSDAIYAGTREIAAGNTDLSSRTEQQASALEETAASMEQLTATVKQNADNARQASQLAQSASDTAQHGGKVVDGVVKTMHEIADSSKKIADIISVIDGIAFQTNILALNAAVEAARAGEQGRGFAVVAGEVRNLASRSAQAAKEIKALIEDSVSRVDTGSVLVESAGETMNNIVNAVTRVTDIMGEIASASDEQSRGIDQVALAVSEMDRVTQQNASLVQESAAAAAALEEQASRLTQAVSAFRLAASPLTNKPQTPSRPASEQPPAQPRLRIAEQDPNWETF

McpS-LBD = molecular target: T3, McpS-LBD (Pseudomonas putida, UniProt Q88E10); assay: ITC titration of McpS-LBD with L-malate at different pH; assay type: binding, P. putida KT2440; conditions: 25°C
T3 construct: pET28b(+) derivative containing a DNA fragment encoding the McpS-LBD; made in house
T3 sequence (Q88E10 41-283): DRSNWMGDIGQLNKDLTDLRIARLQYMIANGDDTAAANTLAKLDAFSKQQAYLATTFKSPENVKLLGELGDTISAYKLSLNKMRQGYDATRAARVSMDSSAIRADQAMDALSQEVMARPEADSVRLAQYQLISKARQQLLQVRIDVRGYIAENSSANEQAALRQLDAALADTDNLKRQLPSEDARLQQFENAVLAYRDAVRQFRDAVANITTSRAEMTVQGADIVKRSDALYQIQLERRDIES

CtpM-LBD = molecular target: T4, CtpM-LBD (Pseudomonas aeruginosa, UniProt Q9I0I6); assay: ITC titration of CtpM-LBD with L-malate at different pH; assay type: binding, P. aeruginosa PAO1
T4 construct: containing a DNA fragment encoding the CtpM (PA2652)-LBD; made in house
T4 sequence (Q9I0I6 33-205): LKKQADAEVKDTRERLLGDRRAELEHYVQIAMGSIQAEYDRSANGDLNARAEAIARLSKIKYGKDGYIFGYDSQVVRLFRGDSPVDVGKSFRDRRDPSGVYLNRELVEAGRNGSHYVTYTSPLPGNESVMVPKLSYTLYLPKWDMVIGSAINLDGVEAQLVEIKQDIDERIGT

PcaY_PP-LBD = molecular target: T5, PcaY_PP-LBD (Pseudomonas putida, UniProt Q88JK6); assay: ITC titration of PcaY_PP-LBD with quinate at different pH; assay type: binding, P. putida KT2440
T5 construct: made in house
T5 sequence (Q88JK6 44-196): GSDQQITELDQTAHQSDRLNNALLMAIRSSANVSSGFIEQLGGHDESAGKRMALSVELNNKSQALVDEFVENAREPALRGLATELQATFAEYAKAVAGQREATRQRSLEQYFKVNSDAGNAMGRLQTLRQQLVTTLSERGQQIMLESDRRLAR
Experimental: To assess the pH dependence of ligand-binding, freshly purified proteins were dialyzed overnight into the buffers described in Table S1 and submitted to microcalorimetric titration.
Freshly purified proteins were dialyzed into the buffers specified in Table S1 and introduced into the sample cell of an VP-microcalorimeter (MicroCal). Proteins at 15 to 100 μM were titrated with 0.25 to 10 mM ligand solutions that were made up in dialysis buffer. For pH-active ligands, the pH of the ligand solutions was adjusted to that of the dialysis buffer by the addition of concentrated HCl or NaOH. Titrations of MBP and McpV-LBD were conducted at 15°C to favor endothermic contributions to binding heats, whereas the remaining titrations were carried out at 25°C. Raw titration data were integrated, corrected for ligand-dilution heats and normalized with the ligand concentrations. Resulting data were fitted with the “One Binding site model” of the MicroCal version of ORIGIN. Provided are the dissociation constants derived from one experiment and the error of curve-fitting.

MBP = molecular target: T6, MBP (Escherichia coli, UniProt P0AEX9); assay: ITC titration of maltose-binding protein (MBP) with D-maltose at different pH; design: species or system E. coli K12
T6 construct: His tag (from pET28b(+)) (N); made in house; host or cells: Escherichia coli BL21(DE3)

[1] = defined as binding with a KD below 1 mM
[2] = 15°C, defined as binding with a KD below 1 mM
[3] = ITC, 25°C, defined as binding with a KD below 1 mM

Chain of (UniProt A0A4D6XHN3) (A0A4D6XHN3 24-265 limits assumed): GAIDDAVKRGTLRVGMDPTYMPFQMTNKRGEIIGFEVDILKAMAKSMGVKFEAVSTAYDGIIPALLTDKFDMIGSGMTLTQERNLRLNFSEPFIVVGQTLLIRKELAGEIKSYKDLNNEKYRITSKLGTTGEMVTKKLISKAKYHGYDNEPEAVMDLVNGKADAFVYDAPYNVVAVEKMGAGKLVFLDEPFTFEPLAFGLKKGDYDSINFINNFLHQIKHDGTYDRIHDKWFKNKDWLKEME

Q: For `NCCC[C@H](N)C(=O)O` [L-ornithine], which Kd ((UniProt A0A4D6XHN3)) is on record?
A: The Kd was 0.66 µM.

Q: `N#Cc1ccccc1` [Benzonitrile] was tested. Which pH optimum (TtgV) did it give?
A: The pH optimum was 6.0.

Q: And the “pH range of binding” value (TtgV; [1])?
A: Its value is 5.0-9.0.

Q: What about the Kd (TtgV; pH 6.0, read-out: KD at pH optimum) of the same compound?
A: Its Kd is 67.6 µM.

Q: Which “width of pH range of high-affinity binding” value (McpV-LBD) does the source give for `CCC(=O)O` [Propionate] here?
A: Its value is 6.5 pH units.

Q: And the pH optimum (McpV-LBD; 15°C)?
A: Its pH optimum is 7.0.

Q: And the “pH range of binding” value (McpV-LBD; [2])?
A: Its value is 5.0-11.5.

Q: What about the Kd (McpV-LBD; 15°C, pH 7.0, read-out: KD at pH optimum) of the same compound?
A: Its Kd is 33.1 µM.

Q: For `O=C(O)C(=O)Cc1c[nH]c2ccccc12` [Indole-3-pyruvic acid], which Kd (AdmX-LBD) is on record?
A: Its Kd is 12.7 µM.

Q: And the pH optimum (AdmX-LBD; ITC, 25°C)?
A: The pH optimum was 8.0.

Q: And the “pH range of binding” value (AdmX-LBD; [3])?
A: The value was 7.5-8.0.

Q: What does the source list for `O=C(O)C[C@H](O)C(=O)O` [L-malate]?
A: EC50 (McpS-Tar; pH 5.5): 9.38 ± 1.9 µM; EC50 (McpS-Tar; pH 7.0): 2.18 ± 0.41 µM; EC50 (McpS-Tar; pH 8.5): 7.66 ± 1.9 µM; pH optimum (McpS-LBD): 5.5; pH range of binding (McpS-LBD; [1]): 3.0-10.0; Kd (McpS-LBD; pH 5.5, read-out: KD at pH optimum): 4 µM; width of pH range of high-affinity binding (CtpM-LBD): 4.5 pH units; pH optimum (CtpM-LBD; 25°C): 6.5; pH range of binding (CtpM-LBD; 25°C, defined as binding with a KD below 1 mM): 4.5-9.0; Kd (CtpM-LBD; 25°C, pH 6.5, read-out: KD at pH optimum): 38.7 µM

Q: With `O=C(O)[C@]1(O)C[C@@H](O)[C@@H](O)[C@H](O)C1` [Quinate] as the compound, how does the Kd (PcaY_PP-LBD) read?
A: Its Kd is 1.22 µM.

Q: What about the pH optimum (PcaY_PP-LBD; ITC, 25°C) of the same compound?
A: The pH optimum was 5.0.

Q: What about the “pH range of binding” value (PcaY_PP-LBD; [3]) of the same compound?
A: Its value is 3.5-11.5.

Q: And the “width of pH profile of binding” value (PcaY_PP-LBD; ITC, pH 3.5-11.5)?
A: Its value is 8 pH units.

Q: What does the source list for `OC[C@H]1O[C@H](O[C@H]2[C@H](O)[C@@H](O)[C@H](O)O[C@@H]2CO)[C@H](O)[C@@H](O)[C@@H]1O` [D-maltose]?
A: width of pH range of ligand recognition (MBP): 8.5 pH units; pH optimum (MBP; 15°C): 9.0; pH range of binding (MBP; [2]): 2.5-11.0
